Source: article PMC7811808, “Design, synthesis, and biological evaluation of novel 5,6,7-trimethoxy quinolines as potential anticancer agents and tubulin polymerization inhibitors” (Iranian Journal of Basic Medical Sciences, 2020)

Legend:
MCF-7 = assay: MTT antiproliferative activity assay; type: cell-based; details: Homo sapiens, MCF7, 48 hr
Method: (§1) The MTT assay was done by seeding 5.0×10^3 human cancer cells or normal cells per well in 96-well plates ([34]-[36]). Following overnight incubation of the cells in 5% CO2 at 37 °C, culture medium of each well was exchanged with medium having reference anti-cancer agent CA-4 as well as different concentrations of synthesized compounds and RPMI (no drug) negative control and cells were incubated 48 hr. Then MTT solution (25 μl, 4 mg ml ^-1) was added to each well and the cells were incubated at 37 °C (for 3 hr). Finally, formazan crystals were dissolved in DMSO (100 μl) and plates were read in a plate reader (Synergy H4, USA) at 540 nm. The cytotoxic activity of the synthesized compounds was evaluated against different human cancer cell lines including […]-7 and MCF-7/MX, and normal cells by MTT assay. Combretastatin A-4 (CA-4) was used as the positive control.

MCF-7/MX = assay: MTT antiproliferative activity assay; type: cell-based; details: Homo sapiens, MCF7/MX; MTT, 48 hr; read-out: IC50 MCF-7/MX
Method: as §1

A2780 = assay: MTT antiproliferative activity assay; type: cell-based; details: Homo sapiens, 48 hr
Method: as §1

A2780/RCIS = assay: MTT antiproliferative activity assay; type: cell-based; details: Homo sapiens, A2780; MTT, 48 hr; read-out: IC50 A2780/RCIS
Method: as §1

HUVEC = assay: MTT assay on normal cells; type: cell-based; details: Homo sapiens, 48 hr
Method: as §1

[1] = tested on: A2780, A2780/RCIS, MCF-7 and MCF-7/MX; assay: MTT assay, statements over all four cancer cell lines; type: cell-based; details: Homo sapiens, range over four cell lines, read-out: IC50 values range against all four human cancer cells
Method: as §1

| Compound | melting point [°C] | IC50 (MCF-7) [µM] | IC50 (MCF-7/MX) [µM] | IC50 (A2780) [µM] | IC50 (A2780/RCIS) [µM] | IC50 (HUVEC) [µM] | IC50 [1] [µM] |
| --- | --- | --- | --- | --- | --- | --- | --- |
| COc1cc2nc(C)cc(Nc3ccccc3Oc3ccccc3)c2c(OC)c1OC [Compound 7g, 5,6,7-Trimethoxy-2-methyl-N-(2-phenoxyphenyl)quinolin-4-amine] | 150 to 153 | 35.8 ± 3.29 | 16.3 ± 2.39 | 12.1 ± 2.17 | 10.1 ± 2.25 | 27.7 ± 2.63 | 5.02 to 35.8 |
| COc1cc2nc(/C=C/c3ccccc3)cc(Cl)c2c(OC)c1OC [Compound 9a, E-4-Chloro-5,6,7-trimethoxy-2-styrylquinoline] | 110 to 113 | 63.7 ± 5.27 | 64.6 ± 5.29 | 30.5 ± 3.22 | 46.2 ± 3.57 | 74 ± 5.95 | – |
| COc1cc2nc(/C=C/c3ccc(C)cc3)cc(Cl)c2c(OC)c1OC [Compound 9b, E-4-Chloro-5,6,7-trimethoxy-2-(4-methylstyryl)quinoline] | 153 to 155 | > 100 | > 100 | > 100 | > 100 | > 100 | – |
| COc1cc2nc(/C=C/c3ccc(F)cc3)cc(Cl)c2c(OC)c1OC [Compound 9c, E-4-Chloro-5,6,7-trimethoxy-2-(4-fluorostyryl)quinoline] | 173 to 176 | > 100 | > 100 | > 100 | > 100 | > 100 | – |
| COc1ccc(/C=C/c2cc(Cl)c3c(OC)c(OC)c(OC)cc3n2)cc1 [Compound 9d, E-4-Chloro-5,6,7-trimethoxy-2-(4-methoxystyryl)quinoline] | – | 42.8 ± 3.48 | 44.1 ± 3.57 | 39.9 ± 3.74 | 33.8 ± 3.48 | 96.2 ± 5.38 | – |
| COc1ccc(/C=C/c2cc(Cl)c3c(OC)c(OC)c(OC)cc3n2)cc1OC [Compound 9e, E-4-Chloro-5,6,7-trimethoxy-2-(3,4-dimethoxystyryl)quinoline] | 122 to 124 | > 100 | > 100 | > 100 | > 100 | > 100 | – |
| COc1cc(/C=C/c2cc(Cl)c3c(OC)c(OC)c(OC)cc3n2)cc(OC)c1OC [Compound 9f, E-4-Chloro-5,6,7-trimethoxy-2-(3,4,5-trimethoxystyryl)quinoline] | 163 to 165 | > 100 | 28 ± 2.64 | 47.9 ± 4.25 | 11.7 ± 2.63 | > 100 | – |
| COc1cc2nc(/C=C/c3ccc([N+](=O)[O-])cc3)cc(Cl)c2c(OC)c1OC [Compound 9g, E-4-Chloro-5,6,7-trimethoxy-2-(4-nitrostyryl)quinoline] | 162 to 164 | > 100 | > 100 | > 100 | > 100 | > 100 | – |
